Test [1] concerns cofilin / PP1 association. Briefly: co-immunoprecipitation of cofilin with PP1 in pancreatic acini. The format is cell-based, rat. The conditions noted are these: CCK-8 100 nM, 3 min. As for the experimental part:
For co-immunoprecipitation, 600 μg of protein was incubated with 15 μL of the anti-cofilin antibody (Santa Cruz Biotechnology, Inc. Dallas, TX) and 25 μL of protein A/G agarose beads (Thermo-Fisher Scientific. Waltham, MA) overnight at 4°C under agitation. Samples were washed three times with lysis buffer, re-suspended in 12.5 μL of Sample Buffer, Laemlii 2x concentrate and boiled for 5 min before western blotting.
FIGURE 6 Effect of CCK-8 (100 nM) to alter co-immunoprecipitation of cofilin with total PP2A (A) or PP1 (B). Isolated pancreatic acini were incubated in the absence or presence of CCK-8 (100 nM) for 3 min and then lysed. Equal amounts of protein were co-immunoprecipitated with an anti-cofilin (Santa Cruz, SC-376476) and then subjected to Western blots using anti-PP2A and anti-PP1. Bands were visualized using chemiluminescence and quantified by densitometry. Top: Results of a representative blot of four independent experiments are shown. Bottom: Means ± S.E. of at least 4 independent experiments. Results are expressed as % of basal stimulation of the control group. N.S., No significant. […] Lysates were analyzed using cofilin (pS3), Total cofilin, PP2A (pY307), Total PP2A, PP1(pT320), Total PP1 and tubulin. […]

Test [2] concerns actin-cofilin interaction in fibroblasts. The conditions noted are these: ref Shoji et al., 2012; cited from earlier work.

Take “COOH-terminal octapeptide of cholecystokinin [CCK-8]”: the “effect on PP1 co-immunoprecipitation with cofilin” value in test [1] was “had no effect”. On to `C=C1[C@@H](C)[C@H]2[C@H](Cc3ccccc3)NC(=O)[C@]23[C@H](OC(C)=O)/C=C/[C@@](C)(O)C(=O)[C@@H](C)C/C=C/[C@H]3[C@@H]1O` [Cytochalasin D], for which, in test [2], the “effect on interaction between actin and cofilin” value was “inhibits the interaction between actin and cofilin”.

(Values after article PMC10149936, “Cofilin activation in pancreatic acinar cells plays a pivotal convergent role for mediating CCK-stimulated enzyme secretion and growth” (Frontiers in Physiology, 2023).)
